# According to paper PMC6974524 (Frontiers in Microbiology, 2020):
# Experiments:
# Mtb-KD = assay type: cell-based, Mycobacterium tuberculosis
# clinical Mtb strains = assay: microbe, parasite or virus in culture; assay type: cell-based, Mycobacterium tuberculosis; details: Mycobacterium tuberculosis; range over standard and clinical strains (abstract); read-out: MIC for the standard and clinical drug-resistant Mtb strains
SMILES,"MIC, ddlA knocked-down (Mtb-KD) [µg/mL]","MIC, ddlA overexpressed (Mtb-KD) [µg/mL]",MIC (clinical Mtb strains) [µg/mL]
"N[C@@H]1CON=C1O [DCS, D-cycloserine, reference compound]",1,32,–
OC1(c2ccc(OC(F)F)cc2)C[N+](c2ccccc2)=C2CCCCN21 (centres unmarked) [IMB-0283],0.25,2,0.25 to 4
